In paper PMC2099433, “The binding site for neohesperidin dihydrochalcone at the human sweet taste receptor” (BMC Structural Biology, 2007):
Where a SMILES comes first, the peptide text is derived from it.

Assays:
hTAS1R2/hTAS1R3 [1] = molecular target: T1, hTAS1R2/hTAS1R3 (Homo sapiens, UniProt Q7RTX0+Q8TE23); experiment: Calcium response (FLIPR) of HEK293T-G16Gust44 cells, wild type receptor; type: cell-based; settings: for EC50 / Emax: wt receptor; for EC50: average ± SD, at least three experiments; for Emax: read-out: maximal signal (% of wt)
T1 construct: expressed in transfected cells; host or cells: HEK293T cells stably expressing G16Gust44
T1 sequence (Q8TE23 20-839): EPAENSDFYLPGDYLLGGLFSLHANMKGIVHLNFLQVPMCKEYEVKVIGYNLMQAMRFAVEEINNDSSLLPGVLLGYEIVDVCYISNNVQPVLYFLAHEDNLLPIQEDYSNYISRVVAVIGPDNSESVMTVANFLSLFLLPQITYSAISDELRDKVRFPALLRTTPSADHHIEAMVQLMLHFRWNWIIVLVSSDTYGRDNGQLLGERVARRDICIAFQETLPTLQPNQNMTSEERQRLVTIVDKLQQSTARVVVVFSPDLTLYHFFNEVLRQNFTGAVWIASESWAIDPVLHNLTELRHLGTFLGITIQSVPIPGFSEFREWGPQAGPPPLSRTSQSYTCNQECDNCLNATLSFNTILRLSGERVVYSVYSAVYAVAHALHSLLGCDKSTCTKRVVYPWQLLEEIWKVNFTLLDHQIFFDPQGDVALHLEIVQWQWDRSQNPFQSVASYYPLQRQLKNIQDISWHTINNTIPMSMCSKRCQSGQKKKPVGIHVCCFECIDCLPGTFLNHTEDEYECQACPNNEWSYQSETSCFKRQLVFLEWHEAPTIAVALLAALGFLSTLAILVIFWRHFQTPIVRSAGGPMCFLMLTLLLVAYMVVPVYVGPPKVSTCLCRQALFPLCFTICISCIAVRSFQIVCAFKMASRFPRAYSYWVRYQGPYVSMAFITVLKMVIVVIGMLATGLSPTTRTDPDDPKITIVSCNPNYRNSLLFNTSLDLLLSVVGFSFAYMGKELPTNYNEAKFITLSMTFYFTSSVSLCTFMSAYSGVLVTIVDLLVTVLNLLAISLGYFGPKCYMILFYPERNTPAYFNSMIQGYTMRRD
T1 sequence (Q7RTX0 21-852): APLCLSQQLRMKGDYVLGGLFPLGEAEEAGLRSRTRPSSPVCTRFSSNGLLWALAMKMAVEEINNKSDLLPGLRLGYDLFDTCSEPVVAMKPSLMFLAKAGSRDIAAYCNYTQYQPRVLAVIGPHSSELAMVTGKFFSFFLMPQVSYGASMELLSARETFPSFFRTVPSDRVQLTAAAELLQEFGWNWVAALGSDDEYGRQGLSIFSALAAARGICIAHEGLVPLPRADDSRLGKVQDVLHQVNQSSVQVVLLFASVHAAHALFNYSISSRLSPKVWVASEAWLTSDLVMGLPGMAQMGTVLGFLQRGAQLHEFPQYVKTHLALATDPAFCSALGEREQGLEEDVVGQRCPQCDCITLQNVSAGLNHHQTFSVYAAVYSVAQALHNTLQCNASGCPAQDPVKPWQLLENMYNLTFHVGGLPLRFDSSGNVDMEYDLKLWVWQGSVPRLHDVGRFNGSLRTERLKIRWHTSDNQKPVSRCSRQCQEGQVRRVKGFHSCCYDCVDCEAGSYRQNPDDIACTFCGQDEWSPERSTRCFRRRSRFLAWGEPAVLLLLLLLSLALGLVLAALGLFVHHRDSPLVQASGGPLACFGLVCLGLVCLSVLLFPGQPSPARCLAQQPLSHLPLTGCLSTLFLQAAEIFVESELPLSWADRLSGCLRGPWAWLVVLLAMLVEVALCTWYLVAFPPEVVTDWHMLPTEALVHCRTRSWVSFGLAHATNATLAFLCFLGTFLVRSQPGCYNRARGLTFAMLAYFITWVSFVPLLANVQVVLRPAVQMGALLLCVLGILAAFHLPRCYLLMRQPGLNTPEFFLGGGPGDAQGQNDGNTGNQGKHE
Excerpt: In order to elucidate the putative binding site for NHDC, we cotransfected mixtures of plasmid DNAs for the rat and human TAS1R2 and TAS1R3 receptor subunits in HEK293T cells stably expressing the chimeric G-protein G16Gust44 and measured cellular calcium responses by fluorometry following bath application of various sweet tasting compounds. […].
The cDNAs for TAS1Rs tagged at the C-terminus with the herpes simplex virus glycoprotein D (HSV) were transiently transfected into HEK293T cells stably expressing the chimeric G-protein subunit G16Gust44 [44] using Lipofectamine 2000 (Invitrogen, Carlsbad, CA) according to the manufacturer's protocol. 3–4 hours after transfection, DMEM was replaced by low-glucose DMEM supplemented with GlutaMAX and 10% dialyzed FBS (Invitrogen, Carlsbad, CA). 24 h post transfection, cells were loaded for 1 h with the calcium sensitive dye Fluo4-AM (2 μg/ml in DMEM, Molecular Probes, Carlsbad, CA). Cells were washed 3x in solution C1 (130 mM NaCl, 5 mM KCl, 10 mM Hepes, 2 mM CaCl2, and 5 mM Glucose, pH 7,4). We monitored calcium mobilization following receptor stimulation with sweet tastants by an automated fluorometric imaging plate reader (FLIPR, Molecular Devices, Sunnyvale, CA). Compounds used as stimuli (Sigma-Aldrich, St. Louis, MO; Merck, Whitehouse Station, NJ) were dissolved in C1 solution. All data were collected from at least three independent experiments carried out in duplicate. The obtained calcium signals were corrected for the response of mock transfected cells and normalized to the fluorescence of cells prior to the application of the stimulus using ΔF/F = (F-F0)/F0. […]

hTAS1R2/hTAS1R3 [2] = molecular target: T1, hTAS1R2/hTAS1R3; experiment: Concentration-response curves of sweeteners in the presence of different lactisole concentrations; type: cell-based; settings: for increase of EC50 value by lactisole: presence vs absence of lactisole; for Hill slope: constant over tested lactisole concentrations

Row | receptor activation (hTAS1R2/hTAS1R3 [1]; human sweet taste receptor) | EC50 (hTAS1R2/hTAS1R3 [1]) | Emax (hTAS1R2/hTAS1R3 [1]) | EC50 (hTAS1R2/hTAS1R3 [2]; 0.0 μM lactisole) | Hill coefficient (hTAS1R2/hTAS1R3 [2]; 0.0 μM lactisole) | Hill coefficient (hTAS1R2/hTAS1R3 [2]; 50 μM lactisole) | Hill coefficient (hTAS1R2/hTAS1R3 [2]; 100 μM lactisole) | increase of EC50 value by lactisole (hTAS1R2/hTAS1R3 [2]) | Hill slope (hTAS1R2/hTAS1R3 [2]) | SMILES
1 | activates | 100 ± 60 µM | 100% | 0.2 ± 0.1 mM | 0.8 | 1.2 | 1.5 | ~ fourfold | – | COc1ccc(CCC(=O)c2c(O)cc(O[C@@H]3O[C@H](CO)[C@@H](O)[C@H](O)[C@H]3O[C@@H]3O[C@@H](C)[C@H](O)[C@@H](O)[C@H]3O)cc2O)cc1O [NHDC, neohesperidin dihydrochalcone]
2 | – | – | – | 0.12 ± 0.04 mM | – | – | – | – | ~ 2 | CC1=CC(=O)NS(=O)(=O)O1 [acesulfame K]
3 | – | 1300 ± 100 µM | 100% | 0.5 ± 0.1 mM | – | – | – | – | ~ 2 | COC(=O)[C@H](Cc1ccccc1)NC(=O)[C@@H](N)CC(=O)O [aspartame] (HELM PEPTIDE1{D.F.[CO[*:1]]}$$$$V2.0)
4 | – | 1900 ± 100 µM | – | 2.2 ± 0.3 mM | – | 2.5 | – | ~ fourfold | – | O=S(=O)(O)NC1CCCCC1 [cyclamate]
